Data taken from patent publication US7118895B2, “Process for producing aglycon by using diglycosidase and flavor-improved food containing the aglycon and converting agent to be used in the process” (Amano Enzyme Inc., priority 2000, dated 2006).

System: Crude diglycosidase
Assay: Examination of substrate concentration in the conversion into isoflavone aglycons by diglycosidase using soybean materials;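 on Decomposition efficiency: ratio of each glycoside/aglycon within its isoflavone family: percent of the isoflavone family total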
Type: biochemical, Penicillium multicolor IAM7153
Procedure, shortened: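 Soybean materials (roasted soy flour, soymilk, defatted soybean, concentrated soy protein) at 2–30% (w/v) in 20 mM acetate pH 4.0 were reacted with crude diglycosidase at 55° C with shaking; enzyme solution added was 1.88 AU/mL. Samples taken at 0, 1, 3 and 6 h were ethanol-extracted and analyzed by HPLC.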

Structure (SMILES): O=C(O)CC(=O)OC[C@H]1O[C@@H](Oc2cc(O)c3c(=O)c(-c4ccc(O)cc4)coc3c2)[C@H](O)[C@@H](O)[C@@H]1O [malonylgenistin, 6″-O-malonylgenistin]
- Decomposition efficiency: ratio of each glycoside/aglycon within its isoflavone family (roasted soy flour, substrate concentration 10%, heat treatment of enzyme no, reaction time 3 h): not detected
- Decomposition efficiency: ratio of each glycoside/aglycon within its isoflavone family (roasted soy flour, substrate concentration 10%, heat treatment of enzyme no, reaction time 6 h): not detected
- Decomposition efficiency: ratio of each glycoside/aglycon within its isoflavone family (roasted soy flour, substrate concentration 10%, heat treatment of enzyme yes, reaction time 6 h): not detected
- Decomposition efficiency: ratio of each glycoside/aglycon within its isoflavone family (roasted soy flour, substrate concentration 20%, heat treatment of enzyme no, reaction time 0 h): not detected
- Decomposition efficiency: ratio of each glycoside/aglycon within its isoflavone family (roasted soy flour, substrate concentration 20%, heat treatment of enzyme no, reaction time 1 h): not detected
- Decomposition efficiency: ratio of each glycoside/aglycon within its isoflavone family (roasted soy flour, substrate concentration 20%, heat treatment of enzyme no, reaction time 3 h): not detected
- Decomposition efficiency: ratio of each glycoside/aglycon within its isoflavone family (roasted soy flour, substrate concentration 20%, heat treatment of enzyme no, reaction time 6 h): not detected
- Decomposition efficiency: ratio of each glycoside/aglycon within its isoflavone family (roasted soy flour, substrate concentration 20%, heat treatment of enzyme yes, reaction time 6 h): not detected
- Decomposition efficiency: ratio of each glycoside/aglycon within its isoflavone family (roasted soy flour, substrate concentration 30%, heat treatment of enzyme no, reaction time 0 h): not detected
- Decomposition efficiency: ratio of each glycoside/aglycon within its isoflavone family (roasted soy flour, substrate concentration 30%, heat treatment of enzyme no, reaction time 1 h): not detected
- Decomposition efficiency: ratio of each glycoside/aglycon within its isoflavone family (roasted soy flour, substrate concentration 30%, heat treatment of enzyme no, reaction time 3 h): not detected
- Decomposition efficiency: ratio of each glycoside/aglycon within its isoflavone family (roasted soy flour, substrate concentration 30%, heat treatment of enzyme no, reaction time 6 h): not detected
- Decomposition efficiency: ratio of each glycoside/aglycon within its isoflavone family (roasted soy flour, substrate concentration 30%, heat treatment of enzyme yes, reaction time 6 h): not detected
- Decomposition efficiency: ratio of each glycoside/aglycon within its isoflavone family (soymilk, substrate concentration 2%, heat treatment of enzyme no, reaction time 0 h): 35.0%
- Decomposition efficiency: ratio of each glycoside/aglycon within its isoflavone family (soymilk, substrate concentration 2%, heat treatment of enzyme no, reaction time 1 h): 15.3%
- Decomposition efficiency: ratio of each glycoside/aglycon within its isoflavone family (soymilk, substrate concentration 2%, heat treatment of enzyme no, reaction time 3 h): 3.5%
- Decomposition efficiency: ratio of each glycoside/aglycon within its isoflavone family (soymilk, substrate concentration 2%, heat treatment of enzyme no, reaction time 6 h): 0.0%
- Decomposition efficiency: ratio of each glycoside/aglycon within its isoflavone family (soymilk, substrate concentration 2%, heat treatment of enzyme yes, reaction time 6 h): 49.5%
- Decomposition efficiency: ratio of each glycoside/aglycon within its isoflavone family (soymilk, substrate concentration 5%, heat treatment of enzyme no, reaction time 0 h): 58.2%
- Decomposition efficiency: ratio of each glycoside/aglycon within its isoflavone family (soymilk, substrate concentration 5%, heat treatment of enzyme no, reaction time 1 h): 24.9%
- Decomposition efficiency: ratio of each glycoside/aglycon within its isoflavone family (soymilk, substrate concentration 5%, heat treatment of enzyme no, reaction time 3 h): 6.9%
- Decomposition efficiency: ratio of each glycoside/aglycon within its isoflavone family (soymilk, substrate concentration 5%, heat treatment of enzyme no, reaction time 6 h): 2.1%
- Decomposition efficiency: ratio of each glycoside/aglycon within its isoflavone family (soymilk, substrate concentration 5%, heat treatment of enzyme yes, reaction time 6 h): 52.5%
- Decomposition efficiency: ratio of each glycoside/aglycon within its isoflavone family (soymilk, substrate concentration 10%, heat treatment of enzyme no, reaction time 0 h): 56.5%
- Decomposition efficiency: ratio of each glycoside/aglycon within its isoflavone family (soymilk, substrate concentration 10%, heat treatment of enzyme no, reaction time 1 h): 31.5%
- Decomposition efficiency: ratio of each glycoside/aglycon within its isoflavone family (soymilk, substrate concentration 10%, heat treatment of enzyme no, reaction time 3 h): 11.9%
- Decomposition efficiency: ratio of each glycoside/aglycon within its isoflavone family (soymilk, substrate concentration 10%, heat treatment of enzyme no, reaction time 6 h): 4.8%
- Decomposition efficiency: ratio of each glycoside/aglycon within its isoflavone family (soymilk, substrate concentration 10%, heat treatment of enzyme yes, reaction time 6 h): 51.2%
- Decomposition efficiency: ratio of each glycoside/aglycon within its isoflavone family (soymilk, substrate concentration 20%, heat treatment of enzyme no, reaction time 0 h): 56.3%
- Decomposition efficiency: ratio of each glycoside/aglycon within its isoflavone family (soymilk, substrate concentration 20%, heat treatment of enzyme no, reaction time 1 h): 37.6%
- Decomposition efficiency: ratio of each glycoside/aglycon within its isoflavone family (soymilk, substrate concentration 20%, heat treatment of enzyme no, reaction time 3 h): 15.7%
- Decomposition efficiency: ratio of each glycoside/aglycon within its isoflavone family (soymilk, substrate concentration 20%, heat treatment of enzyme no, reaction time 6 h): 10.7%
- Decomposition efficiency: ratio of each glycoside/aglycon within its isoflavone family (soymilk, substrate concentration 20%, heat treatment of enzyme yes, reaction time 6 h): 51.0%
- Decomposition efficiency: ratio of each glycoside/aglycon within its isoflavone family (soymilk, substrate concentration 30%, heat treatment of enzyme no, reaction time 0 h): 55.9%
- Decomposition efficiency: ratio of each glycoside/aglycon within its isoflavone family (soymilk, substrate concentration 30%, heat treatment of enzyme no, reaction time 1 h): 42.5%
- Decomposition efficiency: ratio of each glycoside/aglycon within its isoflavone family (soymilk, substrate concentration 30%, heat treatment of enzyme no, reaction time 3 h): 25.4%
- Decomposition efficiency: ratio of each glycoside/aglycon within its isoflavone family (soymilk, substrate concentration 30%, heat treatment of enzyme no, reaction time 6 h): 17.1%
- Decomposition efficiency: ratio of each glycoside/aglycon within its isoflavone family (soymilk, substrate concentration 30%, heat treatment of enzyme yes, reaction time 6 h): 50.0%
- Decomposition efficiency of genistin family in defatted soybean (substrate concentration 2%, heat treatment of enzyme no, reaction time 0 h): 45.4
- Decomposition efficiency of genistin family in defatted soybean (substrate concentration 2%, heat treatment of enzyme no, reaction time 1 h): 31.4
- Decomposition efficiency of genistin family in defatted soybean (substrate concentration 2%, heat treatment of enzyme no, reaction time 3 h): 17.0
- Decomposition efficiency of genistin family in defatted soybean (substrate concentration 2%, heat treatment of enzyme no, reaction time 6 h): 11.4
- Decomposition efficiency of genistin family in defatted soybean (substrate concentration 2%, heat treatment of enzyme yes, reaction time 6 h): 41.8
- Decomposition efficiency of genistin family in defatted soybean (substrate concentration 5%, heat treatment of enzyme no, reaction time 0 h): 43.9
- Decomposition efficiency of genistin family in defatted soybean (substrate concentration 5%, heat treatment of enzyme no, reaction time 1 h): 38.0
- Decomposition efficiency of genistin family in defatted soybean (substrate concentration 5%, heat treatment of enzyme no, reaction time 3 h): 29.6
- Decomposition efficiency of genistin family in defatted soybean (substrate concentration 5%, heat treatment of enzyme no, reaction time 6 h): 19.0
- Decomposition efficiency of genistin family in defatted soybean (substrate concentration 5%, heat treatment of enzyme yes, reaction time 6 h): 41.1
- Decomposition efficiency of genistin family in defatted soybean (substrate concentration 10%, heat treatment of enzyme no, reaction time 0 h): 41.6
- Decomposition efficiency of genistin family in defatted soybean (substrate concentration 10%, heat treatment of enzyme no, reaction time 1 h): 41.5
- Decomposition efficiency of genistin family in defatted soybean (substrate concentration 10%, heat treatment of enzyme no, reaction time 3 h): 35.1
- Decomposition efficiency of genistin family in defatted soybean (substrate concentration 10%, heat treatment of enzyme no, reaction time 6 h): 29.1
- Decomposition efficiency of genistin family in defatted soybean (substrate concentration 10%, heat treatment of enzyme yes, reaction time 6 h): 39.4
